Laboratory results as given in patent US20230088286A1, “USP7 INHIBITOR FOR USE IN THE TREATMENT OF CANCER” (ALMAC DISCOVERY LIMITED, priority 2020, published 2023).

Legend:
Hep CLhep (m) = type: in vitro ADME, mouse
Caco-2 = Caco-2 permeability; type: in vitro ADME
Caco-2 permeability = type: in vitro ADME; conditions: human, Caco-2; read-out: Caco-2 Papp ratio
2C19 = 2C19 (Homo sapiens, UniProt P33261); experiment: Cyp inhibition 2C19; type: in vitro ADME; conditions: read-out: Cyps: 2C19
LogD7.4 = type: physicochemical; conditions: pH 7.4
LM CLhep (d) = type: in vitro ADME, dog
Hep CLhep (h) = type: in vitro ADME, human
KSol = type: physicochemical
[1] = test system: CT-26 tumour cells in BALB/c mouse; experiment: CT-26 syngeneic tumour model with immune checkpoint inhibitors (ADC-159 study); type: in vivo
Description: FIG. 38: Effect of USP7 inhibition in combination with immune checkpoint inhibitors […] on the tumour microenvironment in vivo. […] Tumour volume of CT-26 xenograft implanted in immuno-competent syngeneic mice treated with vehicle control, ADC-159, anti-PD-L1, anti-CTLA-4 or in combination was measured twice weekly until day 13 post tumour implantation.
FIG. 39: USP7 inhibition leads to increase survival when combined with anti-PD-L1 and anti-CTLA-4 immune checkpoint inhibitors. […] (B) Individual growth curves show improved anti-tumour response when USP7 inhibitor ADC-159 is combined with ICIs. n=10 animals/group.
For the immune checkpoint inhibitor in vivo experiments, BALB/c mouse was injected subcutaneously in the right rear flank with 5×10^5 viable CT-26 tumour cells in 0.1 mL of PBS. ADC-159 (75 mg/kg and 100 mg/kg) was dosed daily while anti-PD-L1 or anti-CTLA4 (10 mg/kg) were dosed every 3 days. Tumour volume (mm^3) was measured with callipers three times a week using the equation: Tumour Volume (TV)=0.5((W)^2×L), where W is the shortest tumour diameter (width) and L is the longest perpendicular diameter (length), in millimetres. Body weights were measured on the same days during the dosing phase. […] Graphing and statistical analysis of tumour volume using one-way ANOVA followed by Dunnett's multiple comparisons test. […]

[2] = test system: primary human dermal fibroblasts (HDF) co-cultured with stimulated PBMCs, with or without cancer cells (HT29 or H1299); conditions: inhibitor concentration of 300 nM, 48 hours
Description: Biomarker changes relative to the vehicle control-treated systems are presented as log-transformed ratio.
BioMAP systems were employed using primary human cells. […] Human neonatal foreskin fibroblasts (HDFn) from 3 donors were pooled and cultured according to the supplier's (Lonza, Inc., Allendale, N.J.) recommendation. Peripheral blood mononuclear cells (PBMC) were prepared from buffy coats from normal human donors according to standard methods. Autoimmune HDFSAg system consisted of primary human dermal fibroblasts (HDF) co-cultured with PBMCs stimulated with T-cell receptor (SAg) to model chronic T cell activation and inflammation. Stromal Oncology Colorectal Cancer and Non-Small Cell Lung Cancer (NSCLC) panels were composed of cancer cells (HT29 or H1299), HDF and PBMCs stimulated with SAg. This model captures the interactions between tumour cells, stimulated immune cells and the host stromal network. […] Afterwards, biomarkers were measured in supernatants from co-cultures using ELISA as following: MCP-1, VCAM-1, Collagen I, IP-10, MMP-1, sIL-10, sIL-17A, sIL-17F, sIL-2, sIL-6, SRB, sTGFb, sTNFa, sVEGF, IL-8, MIG, MCSF, uPAR, Col-III, IP-10, EGFR, HGF, Pal-1, PBMC Cytotoxicity, tPA, uPA, sGranzyme, sPGE2, slFg, Sil-13, sMDC, Collagen III, MMP-9, TIMP-2, CEACAM5, Keratin 20. Biomarker levels are presented as log-transformed ratio

[3] = test system: activated primary fibroblasts WI38, IMR90 and HDF; experiment: sVEGF ELISA in activated primary fibroblasts; type: cell-based, human; conditions: fibroblasts activated with anti-CD3/anti-CD28 stimulated PBMCs, FGF-2 or TGFβ
Text: FIG. 5: USP7 inhibition decreased secreted VEGF levels in activated fibroblasts. The USP7-mediated decrease in VEGF secretion observed in the co-cultures can be solely attributed to modulation of secreted VEGF in primary fibroblasts.
(FIG. 4). […] During the wound healing process or following stimulation by acute or chronic inflammatory signals, fibroblasts acquire an activated phenotype (referred to as myofibroblasts). Once activated, myofibroblasts proliferate and migrate, show contractile activity, exert physical forces to modify tissue architecture and become transcriptionally active leading to the secretion of cytokines, chemokines and extra-cellular matrix (ECM) components. In the tumour microenvironment, the majority of residual fibroblasts become activated and are known as cancer associated fibroblasts (CAF). In order to generate a myofibroblast phenotype, WI38, IMR90 and HDF were co-cultured with anti-CD3/anti-CD28 stimulated PBMCs or were stimulated by FGF-2 or TGFβ. […] The USP7 inhibitor-mediated decrease in VEGF secretion was only observed in primary fibroblasts; immortalized lung fibroblasts (WI38-VA13) were insensitive to USP7 inhibitor treatment, probably due to the destabilized p53 in the SV-40 immortalized fibroblasts (FIG. 7).
For the co-culture experiments, 5×10^4 cancer cells were seeded in transwell in 0.5 mL complete growth medium and placed on the top of 0.1×10^6 fibroblasts plated in 12-well in 1 mL low serum growth media overnight. Following day cancer cells were washed with PBS and media replaced with reduced (1%) serum growth media. 0.5×10^6 PBMC were plated on top of fibroblasts, incubated for 45 min and activated with CD3 (1 μg/ml final concentration) and CD28 (5 μg/ml final concentration). […] Monoculture experiments, 0.1×10^6 cells were seeded in 12-well in 1 mL of complete growth media (cancer cells) or low serum growth media (fibroblasts) and incubated overnight. […] Afterwards, cell culture media was collected, cell debris were removed by centrifugation the concentration of VEGF in the cell culture supernatants was measured using the human/mouse VEGF immunoassay Quantikine ELISA kit (R&D systems, Minneapolis, Minn., USA) according to the manufacturer's instructions. For the intracellular VEGF detection, total protein concentration was determined by BCA (Pierce Chemical, USA) and VEGF levels determined using the same kit described above.

[4] = test system: primary fibroblast, immortalised fibroblast, endothelial cells and cancer cells; experiment: Proliferation by live cell time-lapse imaging; type: cell-based, human; conditions: fibroblasts or endothelial cells
Description: During a proliferation assay, pictures were taken every 2 hours using a time-lapse microscope. Charts were used to display cell confluency over time.
To examine the effect of USP7 inhibition on proliferation of primary fibroblast, immortalised fibroblast, endothelial cells and cancer cells, live cell time-lapse imaging was used.

VEGF = experiment: Circulating serum VEGF by ELISA in CT-26 tumour bearing mice; type: in vivo, mouse; conditions: day 15 post tumour grafting

Chain of 2C19 (P33261 whole entry): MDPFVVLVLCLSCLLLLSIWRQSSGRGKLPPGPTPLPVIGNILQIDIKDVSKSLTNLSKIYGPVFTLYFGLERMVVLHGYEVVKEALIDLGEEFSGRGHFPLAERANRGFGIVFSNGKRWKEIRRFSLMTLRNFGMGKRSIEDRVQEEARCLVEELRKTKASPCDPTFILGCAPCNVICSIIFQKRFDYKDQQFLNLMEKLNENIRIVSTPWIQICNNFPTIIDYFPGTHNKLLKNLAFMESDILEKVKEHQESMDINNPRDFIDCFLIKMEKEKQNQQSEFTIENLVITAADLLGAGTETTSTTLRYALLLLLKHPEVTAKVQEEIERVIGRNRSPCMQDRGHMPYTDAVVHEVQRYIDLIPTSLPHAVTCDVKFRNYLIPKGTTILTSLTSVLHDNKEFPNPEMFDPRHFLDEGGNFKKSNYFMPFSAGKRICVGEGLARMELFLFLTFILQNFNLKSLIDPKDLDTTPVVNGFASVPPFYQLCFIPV

Structure (SMILES)	Hep CLhep (m) (Hep CLhep (m))	Caco-2 A:B (Caco-2; A:B)	Caco-2 B:A (Caco-2; B:A)	efflux ratio (Caco-2 permeability)	IC50 (2C19)	LogD7.4 (LogD7.4)	LM CLhep (d) (LM CLhep (d))	Hep CLhep (h) (Hep CLhep (h))	KSol (KSol)	tumour growth inhibition (TGI) ([1]; Day 13)	survival ([1]; Kaplan-Meier, compared to vehicle controls)	decrease in secreted VEGF (sVEGF) [2]	sVEGF protein levels [3]	proliferation [4]	circulating VEGF in mouse serum (VEGF)
CC1(C(=O)N2CCC(O)(Cn3cnc4c(cc(Cl)n4-c4ccc5c(c4)CCO5)c3=O)CC2)CC1 [ADC-159, 6-Chloro-7-(2,3-dihydrobenzofuran-5-yl)-3-((4-hydroxy-1-(1-methylcyclopropane-1-carbonyl)piperidin-4-yl)methyl)-3,7-dihydro-4H-pyrrolo[2,3-d]pyrimidin-4-One]	78	8.5	34.7	4.1	> 20 µM	2.5	22	9	199 µM	23%	modest but significant increase	–	–	–	–
C[C@H](CC(=O)N1CCC(O)(Cn2cnc3c(-c4ccc(CN)cc4)n(C)nc3c2=O)CC1)c1ccccc1 [AD-04, (R)-3-(4-(Aminomethyl)phenyl)-6-((4-hydroxy-1-(3-phenylbutanoyl)piperidin-4-yl)methyl)-2-methyl-2H-pyrazolo[4,3-d]pyrimidin-7(6H)-one]	–	–	–	–	–	–	–	–	–	–	–	3 log fold	dose-dependent decrease	no effect	significant dose-dependent decrease
